Measured values published in patent US20230285570A1, “THERAPEUTICALLY USEFUL CURE-PRO MOLECULES FOR E3 LIGASE MEDIATED DEGRADATION OF PROTEINS, AND METHODS OF MAKING AND USING THEM” (CORNELL UNIVERSITY, priority 2020, published 2023).
Entries after “also recorded” stand apart in the source; their conditions may differ.

Legend:
MV-4-11 cells = assay: CellTiter-Glo cell viability, MV-4-11 cells; assay type: cell-based; details: co-dosed 1:1 with CRBN ligand 8049, MV-4-11, 24 h, 1 nM-100 μM each
Summary of the method: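 Viability by CellTiter-Glo luminescence. One protocol: 5×10^4 MV-4-11 cells, 24 h, compounds at 1 nM-100 μM each; other: 1×10^4 cells, 72 h, 10 nM-100 μM each. BRD ligands combined 1:1 with CRBN ligands; dose-response curves fitted.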

BRD3 = target: T1, BRD3 (Homo sapiens, UniProt Q15059); assay: BRD protein family degradation in HCT116 cells, Western blot: BRD3; assay type: cell-based; details: 1:1 with MDM2 ligands 8310 and 8312 (each), HCT116, 24 h, 100 nM-10 μM
T1 construct: endogenous in cells; host or cells: HCT116
Description: (§1) Namalwa, Ramosm HeLa, MCF7, or HT29 HCT116 cells (2.5-3×10^6) were treated for 24 hours with the indicated compounds solubilized in DMSO. The cells were washed in ice-cold PBS and were then lysed in RIPA lysis buffer (150 mM NaCl, 5 mM EDTA, 1% NP-40, 0.5% sodium deoxycholate, 0.1% SDS, 50 mM Tris, pH 8.0.) with Roche protease inhibitor complete cocktail and phosphatase inhibitors (10 mM sodium fluoride, 10 mM sodium pyrophosphate, 1 mM sodium orthovanadate and 20 mM β-glycerophosphate). The total protein concentrations were determined by Bradford Protein Assay (Pierce) and 10-20 μg of protein was loaded onto 4-15% Tris-Glycine gradient gels (Biorad). After standard gel electrophoresis, the separated proteins were transferred to PVDF membrane by wet transfer. The immunoblots were then blocked for 1 hour in 5% skim milk in TBST or 5% BSA in TBST, according to manufacturer's instructions, before an overnight incubation at 4° C. with indicated antibodies and membranes. […] Signal was detected with ECL Western Blotting Substrate (Pierce) and X-ray film processed with a Konica SRX-101 X-ray film processor or captured by Bio-Rad's Chemidoc Imaging system. […]

BRD2 = target: T2, BRD2 (Homo sapiens, UniProt P25440); assay: BRD protein family degradation in HCT116 cells, Western blot: BRD2; assay type: cell-based; details: 1:1 with MDM2 ligands 8310 and 8312 (each), HCT116, 24 h, 100 nM-10 μM
T2 construct: endogenous in cells; host or cells: HCT116
Description: as §1

SLC19A1 = assay: RT-PCR of c-MYC downstream target gene SLC19A1 in HeLa cells; assay type: cell-based, Human; details: combined with MDM2 ligand 8312, HeLa, 10 μM each, 24 h
Description: The suppression of the expression of the downstream c-MYC target, SLC19A1, was measured by RT-PCR using Power SYBR® Green Cells-to-Ct™ Kit (Life Technologies). Adherent cells were plated on 96 well plates at 5,000 cells per well were treated for 24 h with monomer compounds and compounds capable of reversible interactions (1 nM-100 μM). Cells were subsequently washed in ice-cold PBS processed according to the manufacturer's instructions. Quantitative real-time PCR was performed using a ViiA™ 7 Real-time PCR System (Applied Biosystems, Foster City, Calif., USA). GAPDH and ACTB served as internal controls.
HeLa cells (1×10^4) were treated for 24 hours in 96 well plates with the compounds solubilized in DMSO. Compounds were added at 10 μM each and RNA expression measured by the Cells-to Ct method described above (Thermofisher).

BRD4 [1] = target: T3, BRD4 (Homo sapiens, UniProt O60885); assay: CURE-PRO-mediated BRD4 degradation in HCT116 cells, WES (ProteinSimple); assay type: cell-based; parameters: endogenous in cells; details: for BRD4 degradation: 10 μM
Description: All cell lines were purchased from ATCC or DSMZ and grown at 37° C. with 5% CO2. Human HeLa cells were cultured in complete growth medium (Dulbecco's modified Eagle's medium (DMEM) supplemented with 10% FBS); MCF7 cells were cultured in complete growth medium (Dulbecco's modified Eagle's medium (DMEM) supplemented with 10% FBS and 0.01 mg/ml human recombinant insulin (Sigma Aldrich); Namalwa and Ramos cells were cultured in complete growth medium (RPMI 1640 medium supplemented with 10% FBS); HCT116 and HT29 cells were cultured in complete growth medium (McCoy's 5a Medium supplemented with 10% FBS). For cellular degradation of BRD4 studies cells were seeded in a 12-well plate at 70-80% confluency, allowed to attach overnight, and incubated with the indicated compounds for the indicated time. When indicated, a 15-minute pretreatment with 10 μM pomalidomide, 10 μM VHL298, 10 μM Nutlin3a, 1 μM MG-132 or 1 μM Carfilzomib was performed before the addition of CURE-PROs. For washout studies, after CURE-PRO treatment, media was aspirated and incubated with complete medium for the indicated time before lysis.
WES Simple analysis was performed on WES system (ProteinSimple-Biotechne) according to the manufacturer's instructions. Total protein concentrations of cell lysates were determined by the Pierce BCA kit (Thermo Fisher). 3 μL of 0.3 μg/μL of the protein lysate was loaded onto a 12- to 230-kDa WES assay plate (ProteinSimple) where 300 nL sample was withdrawn through a capillary, subjected to electrophoretic separation of proteins by size, and followed by the simultaneous, HRP-based detection of proteins using the Anti-Rabbit Detection Module (Proteinsimple: #DM-001). The electropherograms were checked then the automatic peak detection was manually corrected if it was required.
(§2) HCT116 cells (3×10^6) were treated for 24 hours with the compounds solubilized in DMSO. Compounds were added at 1 μM-10 μM each. Standardized protein samples were electrophoresed and imaged as described in the WES ProteinSimple section above. FIGS. 59, 60, and 61 depict the concentration-dependence of CURE-PRO-mediated BRD4 degradation using MDM2 ligands.
as §2, with “62” for “59, 60,”, “63” for “61”
HCT116 cells (3×10^6) were treated for 24 hours with the compounds solubilized in DMSO. CURE-PRO monomers were added at 10 μM each and the proteasomal inhibitors at 1 μM. Standardized protein samples were electrophoresed and imaged as described in the WES ProteinSimple section above. FIG. 68 depicts the dependence of the proteasome for CURE-PRO-mediated BRD4 degradation.

BRD4 [2] = target: T3, BRD4; assay: BRD protein family degradation in HCT116 cells, Western blot: BRD4; assay type: cell-based; parameters: endogenous in cells
Description: Namalwa, Ramosm HeLa, MCF7, or HT29 HCT116 cells (2.5-3×10^6) were treated for 24 hours with the indicated compounds solubilized in DMSO. The cells were washed in ice-cold PBS and were then lysed in RIPA lysis buffer (150 mM NaCl, 5 mM EDTA, 1% NP-40, 0.5% sodium deoxycholate, 0.1% SDS, 50 mM Tris, pH 8.0.) with Roche protease inhibitor complete cocktail and phosphatase inhibitors (10 mM sodium fluoride, 10 mM sodium pyrophosphate, 1 mM sodium orthovanadate and 20 mM β-glycerophosphate). The total protein concentrations were determined by Bradford Protein Assay (Pierce) and 10-20 μg of protein was loaded onto 4-15% Tris-Glycine gradient gels (Biorad). After standard gel electrophoresis, the separated proteins were transferred to PVDF membrane by wet transfer. The immunoblots were then blocked for 1 hour in 5% skim milk in TBST or 5% BSA in TBST, according to manufacturer's instructions, before an overnight incubation at 4° C. with indicated antibodies and membranes. Membranes were then incubated with the appropriate horseradish peroxidase-conjugated secondary antibodies (1:5,000 dilution) for 1 h at room temperature and the bands were visualized using the Clarity Max Western ECL Substrate (Biorad) and the ChemiDoc Imaging System (Biorad). Signal was detected with ECL Western Blotting Substrate (Pierce) and X-ray film processed with a Konica SRX-101 X-ray film processor or captured by Bio-Rad's Chemidoc Imaging system.
as §2, with “100 nM-10” for “1 μM-10”, “Immunoblotting” for “WES ProteinSimple”, “64” for “59, 60,”, “65” for “61”, “BRD2 and BRD3” for “BRD4”

BRD4 [3] = target: T3, BRD4; assay: Summary of BRD4 degradation by CURE-PRO pairs, estimated from Western Blot or WES; assay type: cell-based; parameters: endogenous in cells
Summary of the method: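 Degradation read-out from immunoblot with ECL, or WES capillary electrophoresis with HRP detection, of RIPA lysates. Cells (Namalwa, Ramos, HeLa, MCF7, HT29 or HCT116) were exposed to DMSO-solubilized compounds for 24 h; a check mark marks 30% to 70% or higher degradation.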

T2 sequence (P25440 whole entry): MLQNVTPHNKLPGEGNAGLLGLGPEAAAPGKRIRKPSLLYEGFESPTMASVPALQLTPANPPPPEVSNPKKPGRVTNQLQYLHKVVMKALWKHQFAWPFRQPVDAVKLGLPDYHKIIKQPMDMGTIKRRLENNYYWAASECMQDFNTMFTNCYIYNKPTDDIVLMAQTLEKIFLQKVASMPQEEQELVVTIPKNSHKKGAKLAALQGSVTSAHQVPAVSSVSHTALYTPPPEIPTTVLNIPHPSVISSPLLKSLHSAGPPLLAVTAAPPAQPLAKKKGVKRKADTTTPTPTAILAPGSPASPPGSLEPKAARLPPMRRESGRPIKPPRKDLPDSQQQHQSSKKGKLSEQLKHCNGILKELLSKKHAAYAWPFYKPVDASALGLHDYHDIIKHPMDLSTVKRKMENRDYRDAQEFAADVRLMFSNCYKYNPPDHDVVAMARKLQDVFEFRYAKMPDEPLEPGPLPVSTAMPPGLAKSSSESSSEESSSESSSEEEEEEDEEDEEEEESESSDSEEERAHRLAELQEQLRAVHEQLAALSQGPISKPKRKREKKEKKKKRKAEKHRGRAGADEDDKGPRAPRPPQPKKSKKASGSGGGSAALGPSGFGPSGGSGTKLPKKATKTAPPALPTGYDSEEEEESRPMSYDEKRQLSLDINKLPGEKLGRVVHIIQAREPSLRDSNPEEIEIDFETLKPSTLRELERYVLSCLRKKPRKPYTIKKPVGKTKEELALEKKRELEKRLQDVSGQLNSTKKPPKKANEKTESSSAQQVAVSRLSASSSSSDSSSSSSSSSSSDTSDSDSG
T1 sequence (Q15059 whole entry): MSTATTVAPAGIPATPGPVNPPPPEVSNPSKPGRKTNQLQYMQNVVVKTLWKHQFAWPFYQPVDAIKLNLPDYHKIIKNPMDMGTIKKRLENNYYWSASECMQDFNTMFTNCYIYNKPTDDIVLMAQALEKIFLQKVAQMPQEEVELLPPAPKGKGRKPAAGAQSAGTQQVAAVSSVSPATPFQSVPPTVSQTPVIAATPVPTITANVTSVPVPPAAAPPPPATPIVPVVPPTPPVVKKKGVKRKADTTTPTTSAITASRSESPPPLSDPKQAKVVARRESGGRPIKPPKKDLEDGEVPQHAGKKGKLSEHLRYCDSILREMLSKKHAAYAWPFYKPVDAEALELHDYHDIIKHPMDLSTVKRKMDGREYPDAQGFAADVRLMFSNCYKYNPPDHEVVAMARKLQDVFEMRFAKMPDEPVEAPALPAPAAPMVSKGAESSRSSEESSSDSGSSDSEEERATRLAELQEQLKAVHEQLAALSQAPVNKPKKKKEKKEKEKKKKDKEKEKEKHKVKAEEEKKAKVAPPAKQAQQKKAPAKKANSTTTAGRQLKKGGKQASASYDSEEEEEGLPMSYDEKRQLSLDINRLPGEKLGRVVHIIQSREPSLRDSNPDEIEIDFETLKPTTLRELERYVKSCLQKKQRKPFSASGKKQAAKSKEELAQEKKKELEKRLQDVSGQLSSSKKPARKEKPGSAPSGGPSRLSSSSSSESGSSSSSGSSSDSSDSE

Compound: CCNC(=O)C[C@@H]1N=C(c2ccc(Cl)cc2)c2cc(OCCNC(=O)c3cccc(O)c3O)ccc2-n2c(C)nnc21 [BRD-N25]
- loss of cellular viability (toxicity) (MV-4-11 cells): concentration-dependent loss in cellular viability; also recorded: increased toxicity
- BRD3 degradation (BRD3): degradation of BRD3; also recorded: Degradation is evident
- BRD2 degradation (BRD2): BRD2 to a lesser extent; also recorded: Degradation is evident
- suppression of SLC19A1 expression (SLC19A1): suppressed more substantially
- BRD4 degradation with proteasome inhibitors (BRD4 [1]; 1:1 with 8310 at 10 μM, pre-incubation with MG-132 and Carfilzomib 1 μM, HCT116): inhibited by the pre-incubation with MG-132 and Carfilzomib; also recorded: inhibited with the proteasome inhibitors, MG-132 and Carfilzomib
- BRD4 degradation (BRD4 [1]; 1:1 with MDM2 ligand 8310, HCT116, 24 h): caused BRD4 degradation; also recorded: marked BRD4 degradation
- BRD4 degradation (BRD4 [1]; 1:1 with MDM2 ligand 8312, HCT116, 24 h): caused BRD4 degradation
- BRD4 degradation (BRD4 [2]; 1:1 with MDM2 ligands 8310 and 8312 (each), HCT116, 24 h, 100 nM-10 μM): caused BRD4 degradation; also recorded: Degradation is evident
- selectivity of degradation among BRD2, BRD3 and BRD4 (BRD4 [2]; with MDM2 ligands 8310 and 8312, HCT116, Western blot): some selectivity for BRD3 and BRD4 over BRD2 for 8310 is noted
- Degradation of BRD4, combination with MDM2 ligand 8310 (BRD4 [3]; Table 5, aromatic 1,2-diol BRD4 ligand + 8310): √ (A black check mark indicates efficacy of 30% to 70% or higher protein degradation)
- Degradation of BRD4, combination with MDM2 ligand 8312 (BRD4 [3]; Table 5, aromatic 1,2-diol BRD4 ligand + 8312): √ (A black check mark indicates efficacy of 30% to 70% or higher protein degradation)
